The values below come from patent US4468385A, “Poly-cation salts of 4-O-poly-hexaose-thio-alkylene sulfate derivatives and method of use” (American Cyanamid Company, priority 1983, dated 1984).

“And” between values parts separate entries of the source, which are not always exact repeats. Equal values may be shown once. Where a name gives a salt, the structure may show the parent alone.

In one experiment the target is activated human C1 (Homo sapiens, UniProt P09871). Nature of the experiment: Test Code 026 (C1 inhibitor): protection of fluid phase human C2 from activated human C1 in the presence of C4. Type of experiment: biochemical. The settings on record: serial twofold dilution assay; higher well number indicates higher activity.
The subject of a further experiment is complement system. The settings on record: literature report; cited from earlier work.
Experiment [1] concerns hereditary angioneurotic edema. The settings on record: literature report; cited from earlier work.
The test system of experiment [2] is total hemolytic complement activity. The settings on record: in vitro and in vivo, judged by reduction in total hemolytic complement activity; cited from earlier work.

In the case of `O=S(=O)([O-])OC[C@H]1O[C@@H](SCC(O)C(O)CS)[C@H](OS(=O)(=O)[O-])[C@@H](OS(=O)(=O)[O-])[C@@H]1O[C@H]1O[C@H](COS(=O)(=O)[O-])[C@@H](OS(=O)(=O)[O-])[C@H](OS(=O)(=O)[O-])[C@H]1OS(=O)(=O)[O-].[Na+].[Na+].[Na+].[Na+].[Na+].[Na+].[Na+]` (stereo partly drawn) [2,3-Dihydroxy-4-mercaptobutyl 2,3,6-tri-O-sulfo-4-O-(2,3,4,6-tetra-O-sulfo-α-D-glucopyranosyl)-1-thio-β-D-glucopyranoside heptasodium salt], the “In vitro Activity Cl 026 Wells” value at activated human C1 is reported as 12 Wells. For `O=S(=O)(O)OC[C@H]1O[C@H](O[C@H]2[C@H](O)[C@@H](OS(=O)(=O)O)[C@H](SCC(S)CO)O[C@@H]2COS(=O)(=O)O)[C@H](OS(=O)(=O)O)[C@@H](O)[C@@H]1O` (stereo partly drawn) [3-Hydroxy-2-mercaptopropyl 4-O-α-D-glucopyranosyl-1-thio-β-D-glucopyranoside-tetrakis-(H-sulfate) tetrasodium salt], on activated human C1, the “In vitro Activity Cl 026 Wells” value is 6 Wells and 9 Wells. Still for that read-out and setting: the same measure for `CC(=O)NC(CCS[C@@H]1O[C@H](COS(=O)(=O)O)[C@@H](O[C@H]2O[C@H](COS(=O)(=O)O)[C@@H](OS(=O)(=O)O)[C@H](OS(=O)(=O)O)[C@H]2OS(=O)(=O)O)[C@H](OS(=O)(=O)O)[C@H]1OS(=O)(=O)O)C(=O)O` (stereo partly drawn) [4-[2,3,6-Tri-O-sulfo-4-O-(2,3,4,6-tetra-O-sulfo-α-D-glucopyranosyl)-β-D-glucopyranosyl]-2-acetamido-4-mercaptobutyric acid heptasodium salt]: 6 Wells; for `N[C@@H](CS[C@@H]1O[C@H](COS(=O)(=O)O)[C@@H](O[C@H]2O[C@H](COS(=O)(=O)O)[C@@H](OS(=O)(=O)O)[C@H](OS(=O)(=O)O)[C@H]2OS(=O)(=O)O)[C@H](OS(=O)(=O)O)[C@H]1OS(=O)(=O)O)C(=O)O` [4-[2,3,6-Tri-O-sulfo-4-O-(2,3,4,6-tetra-O-sulfo-α-D-glucopyranosyl)-β-D-glucopyranosyl]-L-cysteine heptasodium salt]: 1 Wells.

In the case of `Nc1ccc2cc(S(=O)(=O)[O-])cc(O)c2c1N=Nc1ccc(NC(=O)Nc2ccc(N=Nc3c(N)ccc4cc(S(=O)(=O)[O-])cc(O)c34)c(S(=O)(=O)[O-])c2)cc1S(=O)(=O)[O-].[Na+].[Na+].[Na+].[Na+]` [chlorazol fast pink, 3,3'-ureylenebis[6-(2-amino-8-hydroxy-6-sulfo-1-naphthylazo)benzenesulfonic acid], tetrasodium salt], the anticomplementary effect result in the experiment on complement system is “anticomplementary effect”. As for `NCCCCCC(=O)O` [epsilon-aminocaproic acid], in experiment [1], the “treatment of hereditary angioneurotic edema” value is on record as “used with success”. Take `NC[C@H]1CC[C@H](C(=O)O)CC1` [tranexamic acid]: the “treatment of hereditary angioneurotic edema” value in experiment [1] is on record as “used with success”.

Take heparin: in the experiment on complement system, the anticomplementary effect entry is “anticomplementary effect”. For the compound pentosan- polysulfoester, the “anticomplementary activity on human serum” value in experiment [2] is reported as “anticomplementary activity”.
